Tests used:
[1] = Antiviral activity against HIV 1 NL4-3 infected in human MT4 cells assessed as reduction in viral replication and measured on day 3 post infection by Nano-glo luciferase reporter assay; assay type: functional, cell-based
[2] = Cytotoxicity against human MT4 cells treated for 3 days measured by Celltiter-glo luminescent assay; assay type: cell-based; conditions: time 3 day
[3] = Selectivity index, ratio of CC50 for human MT4 cells to EC50 for antiviral activity against HIV1 NL4-3; assay type: toxicity
[4] = Homo sapiens, NL4-3, MT4, 72 h, read-out: IC50

Row | IC50 ([1]; mt4) | IC50 [1, 4] [µM] | SMILES | CC50 at 72 h [2] [µM] | selectivity ratio [3]
1 | Not Active |  | C=C(C)[C@@H]1CC[C@]2(C(=O)OC)CC[C@]3(C)[C@H](CC[C@@H]4[C@@]5(C)C[C@@H](Cc6cn([C@]7(CO)O[C@@H](n8ccc(O)nc8=O)[C@@H](F)[C@@H]7O)nn6)C(=O)C(C)(C)[C@@H]5CC[C@]43C)[C@@H]12 |  | 
2 |  | 0.0078 | C=C(C)[C@@H]1CC[C@]2(C(=O)O)CC[C@]3(C)[C@H](CC[C@@H]4[C@@]5(C)C[C@@H](Cc6cn([C@]7(CO)O[C@@H](n8ccc(N)nc8=O)[C@@H](F)[C@@H]7O)nn6)[C@H](O)C(C)(C)[C@@H]5CC[C@]43C)[C@@H]12 | 9.6 | 1230
3 |  | 0.000262 | [N-]=[N+]=N[C@]1(CO)O[C@@H](n2ccc(N)nc2=O)[C@@H](F)[C@@H]1O [RO-0622] | 0.0996 | 380
4 |  | 0.048 | C=C(C)[C@@H]1CC[C@]2(C(=O)OC)CC[C@]3(C)[C@H](CC[C@@H]4[C@@]5(C)C[C@@H](Cc6cn([C@]7(CO)O[C@@H](n8ccc(N)nc8=O)[C@@H](F)[C@@H]7O)nn6)[C@H](O)C(C)(C)[C@@H]5CC[C@]43C)[C@@H]12 | > 25.2 | > 525
5 |  | > 0.021 | C=C(C)[C@@H]1CC[C@]2(C(=O)O)CC[C@]3(C)[C@H](CC[C@@H]4[C@@]5(C)CC[C@H](OC(=O)CC(C)(C)C(=O)O)C(C)(C)[C@@H]5CC[C@]43C)[C@@H]12 [BEVIRIMAT] | > 6.84 | > 326
6 | Not Active |  | C=C(C)[C@@H]1CC[C@]2(C(=O)OC)CC[C@]3(C)[C@H](CC[C@@H]4[C@@]5(C)C[C@@H](Cc6cn([C@H]7C[C@H](n8cc(C)c(O)nc8=O)O[C@@H]7CO)nn6)C(=O)C(C)(C)[C@@H]5CC[C@]43C)[C@@H]12 |  | 
7 |  | > 1.3 | C=C(C)[C@@H]1CC[C@]2(C(=O)O)CC[C@]3(C)[C@H](CC[C@@H]4[C@@]5(C)C[C@@H](Cc6cn([C@H]7C[C@H](n8cc(C)c(O)nc8=O)O[C@@H]7CO)nn6)[C@H](O)C(C)(C)[C@@H]5CC[C@]43C)[C@@H]12 | > 1.3 | 
8 |  | 0.219 | [N-]=[N+]=N[C@]1(CO)O[C@@H](n2ccc(=O)[nH]c2=O)[C@@H](F)[C@@H]1O | > 3.48 | > 16
9 |  | 0.02 | C=C(C)[C@@H]1CC[C@]2(C(=O)O)CC[C@]3(C)[C@H](CC[C@@H]4[C@@]5(C)C[C@@H](Cc6cn([C@]7(CO)O[C@@H](n8ccc(O)nc8=O)[C@@H](F)[C@@H]7O)nn6)[C@H](O)C(C)(C)[C@@H]5CC[C@]43C)[C@@H]12 | 23.8 | 1190
10 |  | > 1.3 | C=C(C)[C@@H]1CC[C@]2(C(=O)OC)CC[C@]3(C)[C@H](CC[C@@H]4[C@@]5(C)C[C@@H](Cc6cn([C@H]7C[C@H](n8cc(C)c(O)nc8=O)O[C@@H]7CO)nn6)[C@H](O)C(C)(C)[C@@H]5CC[C@]43C)[C@@H]12 | > 1.3 | 
11 | Not Active |  | C=C(C)[C@@H]1CC[C@]2(C(=O)OC)CC[C@]3(C)[C@H](CC[C@@H]4[C@@]5(C)C[C@@H](Cc6cn([C@]7(CO)O[C@@H](n8ccc(O)nc8=O)[C@@H](F)[C@@H]7O)nn6)[C@H](O)C(C)(C)[C@@H]5CC[C@]43C)[C@@H]12 |  | 
12 |  | 0.097 | C=C(C)[C@@H]1CC[C@]2(C(=O)OC)CC[C@]3(C)[C@H](CC[C@@H]4[C@@]5(C)C[C@@H](Cc6cn([C@]7(CO)O[C@@H](n8ccc(N)nc8=O)[C@@H](F)[C@@H]7O)nn6)C(=O)C(C)(C)[C@@H]5CC[C@]43C)[C@@H]12 | > 25.2 | > 260
13 |  | 0.018 | Cc1cn([C@H]2C[C@H](N=[N+]=[N-])[C@@H](CO)O2)c(=O)[nH]c1=O [ZIDOVUDINE] | > 0.37 | > 20.6

— ChEMBL document CHEMBL4725481, “Novel Betulinic Acid-Nucleoside Hybrids with Potent Anti-HIV Activity” (ACS Med Chem Lett, 2020)
